Test results published in US20240365784A1, “AZOLE COMPOUNDS FOR CONTROLLING INVERTEBRATE PESTS” (FMC Corporation, priority 2021, published 2024).

Test system: cotton melon aphid (Aphis gossypii (Glover))
Assay: whole plant or invertebrate
Assay type: in vivo
Settings: 144 h, sprayed at 50 ppm, okra plant, assessed after 6 days
Method: (§1) Test compounds were formulated using a solution containing 10% acetone, 90% water and 300 ppm Activator 90® non-ionic surfactant (Loveland Products, Loveland, Colorado, USA). The formulated compounds were applied in 1 mL of liquid through an atomizer nozzle positioned 1.27 cm (0.5 inches) above the top of each test unit. Test compounds were sprayed at the rates indicated, and each test was replicated three times.
For evaluating control of cotton melon aphid (Aphis gossypii (Glover)) through contact and/or systemic means, the test unit consisted of a small open container with a 5-day-old okra plant inside. This was pre-infested with 30-40 insects on a piece of leaf according to the cut-leaf method, and the soil of the test unit was covered with a layer of sand.
[…] After spraying, the test units were maintained in a growth chamber for 6 days at 19° C. and 70% relative humidity. Each test unit was then visually assessed for insect mortality.

| SMILES | mortality at 50 ppm |
| --- | --- |
| Fc1cncc(-n2nccn2)c1Cc1ccc(SC(F)(F)F)cc1 [Compound 2] | ≥ 80% |
| FC(F)(F)Sc1ccc(Cc2c(Cl)cncc2-n2nccn2)cc1 [Compound 5] | ≥ 80% |
| CC(c1ccc(SC(F)(F)F)cc1)c1c(F)cncc1-n1nccn1 (stereo not shown) [Compound 8] | ≥ 80% |
| Fc1cncc(-n2cccn2)c1Cc1ccc(SC(F)(F)F)cc1 [Compound 19] | ≥ 80% |
| FC(F)(F)Sc1ccc(Cc2c(Cl)cncc2-n2cccn2)cc1 [Compound 20] | ≥ 80% |
| FC(F)(F)Sc1ccc(Cc2c(Cl)cncc2-n2cncn2)cc1 [Compound 21] | ≥ 80% |
| Fc1cncc(-n2cncn2)c1Cc1ccc(SC(F)(F)F)cc1 [Compound 24] | ≥ 80% |
| FC(F)(F)Sc1ccc(Cc2c(Br)cncc2-n2nccn2)cc1 [Compound 26] | ≥ 80% |
| Fc1cc(Cc2c(Cl)cncc2-n2nccn2)ccc1OC(F)(F)F [Compound 70] | ≥ 80% |

Same assay, conditions: 144 h, tested at 10 ppm, okra plant, assessed after 6 days

| SMILES | mortality at 10 ppm |
| --- | --- |
| Fc1cncc(-n2nccn2)c1Cc1ccc(SC(F)(F)F)cc1 [Compound 2] | ≥ 80% |
| CC(c1ccc(SC(F)(F)F)cc1)c1c(F)cncc1-n1nccn1 (stereo not shown) [Compound 8] | ≥ 80% |
| Fc1cncc(-n2cccn2)c1Cc1ccc(SC(F)(F)F)cc1 [Compound 19] | ≥ 80% |
| FC(F)(F)Sc1ccc(Cc2c(Cl)cncc2-n2cccn2)cc1 [Compound 20] | ≥ 80% |
| FC(F)(F)Sc1ccc(Cc2c(Br)cncc2-n2nccn2)cc1 [Compound 26] | ≥ 80% |
| Fc1cc(Cc2c(Cl)cncc2-n2nccn2)ccc1OC(F)(F)F [Compound 70] | ≥ 80% |

Test system: green peach aphid (Myzus persicae (Sulzer))
Assay: whole plant or invertebrate
Assay type: in vivo
Settings: 144 h, sprayed at 50 ppm, radish plant, assessed after 6 days
Method: as §1
For evaluating control of green peach aphid (Myzus persicae (Sulzer)) through contact and/or systemic means, the test unit consisted of a small open container with a 12-15-day-old radish plant inside. This was pre-infested by placing on a leaf of the test plant 30-40 aphids on a piece of leaf excised from a culture plant (cut-leaf method). The aphids moved onto the test plant as the leaf piece desiccated. After pre-infestation, the soil of the test unit was covered with a layer of sand.
Test compounds were formulated and sprayed at 250 and/or 50 ppm. After spraying of the formulated test compound, each test unit was allowed to dry for 1 hour and then a black, screened cap was placed on top. The test units were held for 6 days in a growth chamber at 19-21° C. and 50-70% relative humidity. Each test unit was then visually assessed for insect mortality.

| SMILES | mortality at 50 ppm |
| --- | --- |
| Fc1cncc(-n2nccn2)c1Cc1ccc(OC(F)(F)F)cc1 [Compound 1, 3-fluoro-5-(triazol-2-yl)-4-[[4(trifluoromethoxy)phenyl]methyl]pyridine] | ≥ 80% |
| Fc1cncc(-n2nccn2)c1Cc1ccc(SC(F)(F)F)cc1 [Compound 2] | ≥ 80% |
| FC(F)(F)Sc1ccc(Cc2c(Cl)cncc2-n2nccn2)cc1 [Compound 5] | ≥ 80% |
| CC(c1ccc(SC(F)(F)F)cc1)c1c(F)cncc1-n1nccn1 (stereo not shown) [Compound 8] | ≥ 80% |
| Fc1cncc(-n2cccn2)c1Cc1ccc(SC(F)(F)F)cc1 [Compound 19] | ≥ 80% |
| FC(F)(F)Sc1ccc(Cc2c(Cl)cncc2-n2cccn2)cc1 [Compound 20] | ≥ 80% |
| FC(F)(F)Sc1ccc(Cc2c(Cl)cncc2-n2cncn2)cc1 [Compound 21] | ≥ 80% |
| Fc1cncc(-n2cncn2)c1Cc1ccc(SC(F)(F)F)cc1 [Compound 24] | ≥ 80% |
| FC(F)(F)Sc1ccc(Cc2c(Br)cncc2-n2nccn2)cc1 [Compound 26] | ≥ 80% |
| Fc1cc(Cc2c(Cl)cncc2-n2nccn2)ccc1OC(F)(F)F [Compound 70] | ≥ 80% |

Test system: sweetpotato whitefly (Bemisia tabaci (Gennadius))
Assay: whole plant or invertebrate
Assay type: in vivo
Settings: 312 h, sprayed at 50 ppm, cotton plant infested with eggs, assessed after 13 days
Method: as §1
For evaluating control of the sweetpotato whitefly (Bemisia tabaci (Gennadius)) through contact and/or systemic means, the test unit consisted of a small open container with a 12-14-day-old cotton plant inside. Prior to the spray application, both cotyledons were removed from the plant, leaving one true leaf for the assay. Adult whiteflies were allowed to lay eggs on the plant and then were removed from the test unit. Cotton plants infested with at least 15 eggs were submitted to the test for spraying.
[…] After spraying, the test units were allowed to dry for 1 hour. The cylinders were then removed, and the units were taken to a growth chamber and held for 13 days at 28° C. and 50-70% relative humidity. Each test unit was then visually assessed for insect mortality.

| SMILES | mortality at 50 ppm |
| --- | --- |
| Fc1cncc(-n2nccn2)c1Cc1ccc(OC(F)(F)F)cc1 [Compound 1, 3-fluoro-5-(triazol-2-yl)-4-[[4(trifluoromethoxy)phenyl]methyl]pyridine] | ≥ 70% |
| FC(F)(F)Sc1ccc(Cc2c(Cl)cncc2-n2nccn2)cc1 [Compound 5] | ≥ 70% |
| Fc1cncc(-n2cccn2)c1Cc1ccc(SC(F)(F)F)cc1 [Compound 19] | ≥ 70% |
| FC(F)(F)Sc1ccc(Cc2c(Cl)cncc2-n2cccn2)cc1 [Compound 20] | ≥ 70% |
| FC(F)(F)Sc1ccc(Cc2c(Cl)cncc2-n2cncn2)cc1 [Compound 21] | ≥ 70% |
| FC(F)(F)Sc1ccc(Cc2c(Br)cncc2-n2nccn2)cc1 [Compound 26] | ≥ 70% |

Same assay, conditions: 312 h, tested at 10 ppm, cotton plant infested with eggs, assessed after 13 days

| SMILES | mortality at 10 ppm |
| --- | --- |
| FC(F)(F)Sc1ccc(Cc2c(Cl)cncc2-n2nccn2)cc1 [Compound 5] | ≥ 70% |
| Fc1cncc(-n2cccn2)c1Cc1ccc(SC(F)(F)F)cc1 [Compound 19] | ≥ 70% |
| FC(F)(F)Sc1ccc(Cc2c(Cl)cncc2-n2cccn2)cc1 [Compound 20] | ≥ 70% |
| FC(F)(F)Sc1ccc(Cc2c(Cl)cncc2-n2cncn2)cc1 [Compound 21] | ≥ 70% |
| FC(F)(F)Sc1ccc(Cc2c(Br)cncc2-n2nccn2)cc1 [Compound 26] | ≥ 70% |

Test system: not given
Assay: not given
Settings: not given

| melting point | SMILES |
| --- | --- |
| 81 to 84 °C | [O-][S+](c1ccc(Cc2ccncc2-n2nccn2)cc1)C(F)(F)F (stereo not shown) [Compound 28] |
| 80 to 83 °C | Fc1cncc(-n2nccn2)c1Cc1ccc(Br)cc1 [Compound 31] |

Test system: corn planthopper (Peregrinus maidis (Ashmead))
Assay: whole plant or invertebrate
Assay type: in vivo
Settings: 144 h, sprayed at 10 ppm, corn plant, nymphs, assessed after 6 days
Method: as §1
For evaluating control of corn planthopper (Peregrinus maidis (Ashmead)) through contact and/or systemic means, the test unit consisted of a small open container with a 3-4-day-old corn (maize) plant inside. White sand was added to the top of the soil prior to application of the test compound.
(§2) Test compounds were formulated and sprayed at 250 and/or 50 ppm and/or 10 ppm. After spraying of the formulated test compound, the test units were allowed to dry for 1 h before they were post-infested with ˜15-20 nymphs (18-to-21-day-old). A black, screened cap was placed on the top of each test unit, and the test units were held for 6 days in a growth chamber at 22-24° C. and 50-70% relative humidity. Each test unit was then visually assessed for insect mortality.

| SMILES | mortality at 10 ppm |
| --- | --- |
| Fc1cncc(-n2nccn2)c1Cc1ccc(OC(F)(F)F)cc1 [Compound 1, 3-fluoro-5-(triazol-2-yl)-4-[[4(trifluoromethoxy)phenyl]methyl]pyridine] | ≥ 80% |
| Fc1cncc(-n2nccn2)c1Cc1ccc(SC(F)(F)F)cc1 [Compound 2] | ≥ 80% |
| FC(F)(F)Sc1ccc(Cc2c(Cl)cncc2-n2nccn2)cc1 [Compound 5] | ≥ 80% |
| CC(c1ccc(SC(F)(F)F)cc1)c1c(F)cncc1-n1nccn1 (stereo not shown) [Compound 8] | ≥ 80% |
| Fc1cncc(-n2cccn2)c1Cc1ccc(SC(F)(F)F)cc1 [Compound 19] | ≥ 80% |
| FC(F)(F)Sc1ccc(Cc2c(Cl)cncc2-n2cccn2)cc1 [Compound 20] | ≥ 80% |
| FC(F)(F)Sc1ccc(Cc2c(Br)cncc2-n2nccn2)cc1 [Compound 26] | ≥ 80% |
| Fc1cc(Cc2c(Cl)cncc2-n2nccn2)ccc1OC(F)(F)F [Compound 70] | ≥ 80% |

Same assay, conditions: 144 h, sprayed at 50 ppm, corn plant, nymphs, assessed after 6 days

| SMILES | mortality at 50 ppm |
| --- | --- |
| Fc1cncc(-n2nccn2)c1Cc1ccc(OC(F)(F)F)cc1 [Compound 1, 3-fluoro-5-(triazol-2-yl)-4-[[4(trifluoromethoxy)phenyl]methyl]pyridine] | ≥ 80% |
| Fc1cncc(-n2nccn2)c1Cc1ccc(SC(F)(F)F)cc1 [Compound 2] | ≥ 80% |
| FC(F)(F)Sc1ccc(Cc2c(Cl)cncc2-n2nccn2)cc1 [Compound 5] | ≥ 80% |
| CC(c1ccc(SC(F)(F)F)cc1)c1c(F)cncc1-n1nccn1 (stereo not shown) [Compound 8] | ≥ 80% |
| FC(F)(F)Sc1ccc(Cc2c(Cl)cncc2-n2cccn2)cc1 [Compound 20] | ≥ 80% |
| FC(F)(F)Sc1ccc(Cc2c(Br)cncc2-n2nccn2)cc1 [Compound 26] | ≥ 80% |
| Fc1cc(Cc2c(Cl)cncc2-n2nccn2)ccc1OC(F)(F)F [Compound 70] | ≥ 80% |

Test system: potato leafhopper (Empoasca fabae (Harris))
Assay: Test B: control of potato leafhopper, spray, contact and/or systemic
Assay type: in vivo
Settings: tested at 50 ppm; Soleil bean plant, adults, assessed after 6 days
Method: as §1
Each test unit was then visually assessed for insect mortality.

| SMILES | mortality |
| --- | --- |
| Cc1cnn(-c2cncc(F)c2Cc2ccc(OC(F)(F)F)cc2)n1 [Compound 3, 3-fluoro-5-(4-methyltriazol-2-yl)-4-[[4-(trifluoromethoxy)phenyl]methyl]pyridine] | at least 80% |

Test system: Brown Planthopper (Nilaparvata lugens (Stil))
Assay: Test F: control of Brown Planthopper, spray, contact and/or systemic
Assay type: in vivo
Settings: 120 h, sprayed at 10 ppm, rice stems, nymphs, assessed after 5 days
Method: as §1
For evaluating control of Brown Planthopper (Nilaparvata lugens (Stil)) through contact and/or systemic means, the test unit consisted of a small open container with 6-10 25-day-old rice stems inside. White sand was added to the top of the soil prior to application of the test compound.
as §2, with “at” for “at 250 and/or”, “(15-to-17-day-old).” for “(18-to-21-day-old).”, “5” for “6”, “28°” for “22-24°”, “65%” for “50-70%”

| SMILES | mortality at 10 ppm |
| --- | --- |
| Fc1cncc(-n2nccn2)c1Cc1ccc(OC(F)(F)F)cc1 [Compound 1, 3-fluoro-5-(triazol-2-yl)-4-[[4(trifluoromethoxy)phenyl]methyl]pyridine] | ≥ 80% |
| Fc1cncc(-n2nccn2)c1Cc1ccc(SC(F)(F)F)cc1 [Compound 2] | ≥ 80% |
| FC(F)(F)Sc1ccc(Cc2c(Cl)cncc2-n2nccn2)cc1 [Compound 5] | ≥ 80% |
| CC(c1ccc(SC(F)(F)F)cc1)c1c(F)cncc1-n1nccn1 (stereo not shown) [Compound 8] | ≥ 80% |
| Fc1cncc(-n2cccn2)c1Cc1ccc(SC(F)(F)F)cc1 [Compound 19] | ≥ 80% |
| FC(F)(F)Sc1ccc(Cc2c(Cl)cncc2-n2cccn2)cc1 [Compound 20] | ≥ 80% |
| FC(F)(F)Sc1ccc(Cc2c(Br)cncc2-n2nccn2)cc1 [Compound 26] | ≥ 80% |

Test system: green peach aphid (Myzus persicae (Sulzer))
Assay: whole plant or invertebrate
Assay type: in vivo
Settings: 144 h, tested at 10 ppm, radish plant, assessed after 6 days

| SMILES | mortality at 10 ppm |
| --- | --- |
| Fc1cncc(-n2nccn2)c1Cc1ccc(SC(F)(F)F)cc1 [Compound 2] | ≥ 80% |
| FC(F)(F)Sc1ccc(Cc2c(Cl)cncc2-n2nccn2)cc1 [Compound 5] | ≥ 80% |
| FC(F)(F)Sc1ccc(Cc2c(Cl)cncc2-n2cncn2)cc1 [Compound 21] | ≥ 80% |
| Fc1cncc(-n2cncn2)c1Cc1ccc(SC(F)(F)F)cc1 [Compound 24] | ≥ 80% |
| FC(F)(F)Sc1ccc(Cc2c(Br)cncc2-n2nccn2)cc1 [Compound 26] | ≥ 80% |
| Fc1cc(Cc2c(Cl)cncc2-n2nccn2)ccc1OC(F)(F)F [Compound 70] | ≥ 80% |
